Results as given in patent US10195181B2, “Carboxamide derivatives” (Novartis AG, priority 2014, dated 2019).

Target: Smurf-1 (Homo sapiens (Human), UniProt Q9HCE7)
Experiment: HECT E3 ligase autoubiquitinylation TR-FRET assay (Smurf-1)
Assay type: biochemical
Text: To determine the HECT E3 ligase selectivity of the compounds, a panel of biochemical HECT E3 ligase autoubiquitinylation assays was employed (Smurf-1, Smurf-2, WWP1, WWP2, ITCH, Nedd4, Nedd4L and E6AP). The conjugation of ubiquitin to a protein substrate is a multistep process. In an initial ATP-requiring step, a thioester bond is formed between the carboxyl terminus of ubiquitin and an internal cystein residue of the ubiquitin-activating enzyme (E1). Activated ubiquitin is then transferred to a specific cystein residue of an ubiquitin-conjugating enzyme (E2). E2s donate ubiquitin to a HECT E3 ligase (E3) from which it is transferred to the substrate protein. HECT E3 ligases can auto-ubiquitinylate. This event is detected in the TR-FRET (Time-Resolved Fluorescence Resonance Energy Transfer) assay used in this panel. […] When these two fluorophores are brought together by a biomolecular interaction (in this case ubiquitinylation of the E3 ligase), a portion of the energy captured by the Cryptate during excitation is released through fluorescence emission at 620 nm, while the remaining energy is transferred to XL665. This energy is then released by XL665 as specific fluorescence at 665 nm. […]
After an incubation time of 45 min in the dark, the plates are transferred into the Pherastar fluorescence reader to measure the TR-FRET signal.

Smurf-1, sequence (Q9HCE7 whole entry): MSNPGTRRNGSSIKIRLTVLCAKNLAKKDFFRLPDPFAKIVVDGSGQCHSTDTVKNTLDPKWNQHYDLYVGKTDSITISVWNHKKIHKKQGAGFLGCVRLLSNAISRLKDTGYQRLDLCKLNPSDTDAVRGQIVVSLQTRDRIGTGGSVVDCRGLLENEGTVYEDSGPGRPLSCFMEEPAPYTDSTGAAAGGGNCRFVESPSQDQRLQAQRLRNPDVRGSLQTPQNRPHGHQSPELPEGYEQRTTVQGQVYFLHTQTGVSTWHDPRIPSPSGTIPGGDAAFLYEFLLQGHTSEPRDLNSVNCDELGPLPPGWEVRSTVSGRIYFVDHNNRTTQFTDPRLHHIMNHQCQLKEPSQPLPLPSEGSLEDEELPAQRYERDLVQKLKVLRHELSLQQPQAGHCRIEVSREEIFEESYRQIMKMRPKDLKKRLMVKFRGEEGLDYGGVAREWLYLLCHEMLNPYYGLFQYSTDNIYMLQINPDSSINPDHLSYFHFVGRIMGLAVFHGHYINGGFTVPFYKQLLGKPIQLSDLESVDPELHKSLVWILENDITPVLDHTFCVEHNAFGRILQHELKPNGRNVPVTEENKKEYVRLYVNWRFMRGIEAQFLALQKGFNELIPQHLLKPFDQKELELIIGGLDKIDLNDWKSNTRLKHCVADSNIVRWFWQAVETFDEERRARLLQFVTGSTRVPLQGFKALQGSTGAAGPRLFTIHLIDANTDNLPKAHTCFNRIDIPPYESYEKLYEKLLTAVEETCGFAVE

An IC50 of 980 nM was found for `Cc1c(C(=O)Nc2c(C)n(C)n(C(C)C)c2=O)noc1[C@@H]1CCC[C@H](C(C)(C)C)O1` (mixture of isomers) [Example 17, 5-((2R,6S)-6-(tert-butyl)tetrahydro-2H-pyran-2-yl)-N-(2-isopropyl-1,5-dimethyl-3-oxo-2,3-dihydro-1H-pyrazol-4-yl)-4-methylisoxazole-3-carboxamide and 5-((2S,6R)-6-(tert-butyl)tetrahydro-2H-pyran-2-yl)-N-(2-isopropyl-1,5-dimethyl-3-oxo-2,3-dihydro-1H-pyrazol-4-yl)-4-methylisoxazole-3-carboxamide] in this work.
